Measurements: ChEMBL document CHEMBL3585261, “Isolation and Pharmacological Evaluation of Minor Cannabinoids from High-Potency Cannabis sativa” (J Nat Prod, 2015)

Key:
[1] = tested on: Mus musculus; experiment: Neurobehavioral effect on Swiss Webster mouse assessed as catalepsy latency time at 20 mg/kg, ip (reference value: 2.1 +/- 0.60 secs) by mouse tetrad assay; type: functional
[2] = tested on: Mus musculus; experiment: Neurobehavioral effect on Swiss Webster mouse assessed as locomotor activity measured as total number of interruptions at 5 mg/kg, ip monitored for 30 mins (reference value: 2091 +/- 209.3) by mouse tetrad assay; type: functional
[3] = tested on: Mus musculus; experiment: Neurobehavioral effect on Swiss Webster mouse assessed as tail-flick latency time at 20 mg/kg, ip (reference value: 0.84 +/- 3.58 %) by mouse tetrad assay; type: functional
[4] = tested on: Mus musculus; experiment: Neurobehavioral effect on Swiss Webster mouse assessed as catalepsy latency time at 5 mg/kg, ip (reference value: 2.1 +/- 0.60 secs) by mouse tetrad assay; type: functional
[5] = tested on: Mus musculus; experiment: Neurobehavioral effect on Swiss Webster mouse assessed as locomotor activity measured as total number of interruptions at 20 mg/kg, ip monitored for 30 mins (reference value: 2091 +/- 209.3) by mouse tetrad assay; type: functional
[6] = target: Cannabinoid receptor 2 (Homo sapiens, UniProt P34972); experiment: Displacement of [3H]CP55940 from full length human recombinant CB2 receptor expressed in HEK293 cells after 90 mins by scintillation counting analysis; type: cell-based
[7] = tested on: Mus musculus; experiment: Neurobehavioral effect on Swiss Webster mouse assessed as locomotor activity measured as total number of interruptions at 10 mg/kg, ip monitored for 30 mins (reference value: 2091 +/- 209.3) by mouse tetrad assay; type: functional
[8] = tested on: Mus musculus; experiment: Neurobehavioral effect on Swiss Webster mouse assessed as tail-flick latency time at 5 mg/kg, ip (reference value: 0.84 +/- 3.58 %) by mouse tetrad assay; type: functional
[9] = tested on: Mus musculus; experiment: Neurobehavioral effect on Swiss Webster mouse assessed as hot plate latency time at 5 mg/kg, ip (reference value: 8.32 +/- 2.20 %) by mouse tetrad assay; type: functional
[10] = tested on: Mus musculus; experiment: Neurobehavioral effect on Swiss Webster mouse assessed as decrease in rectal temperature at 10 mg/kg, ip (reference value: 0.58 +/- 0.26 degC) by mouse tetrad assay; type: functional
[11] = target: Cannabinoid receptor 1 (Homo sapiens, UniProt P21554); experiment: Displacement of [3H]CP55940 from full length human recombinant CB1 receptor expressed in HEK293 cells after 90 mins by scintillation counting analysis; type: cell-based
[12] = tested on: Mus musculus; experiment: Neurobehavioral effect on Swiss Webster mouse assessed as hot plate latency time at 10 mg/kg, ip (reference value: 8.32 +/- 2.20 %) by mouse tetrad assay; type: functional
[13] = tested on: Mus musculus; experiment: Neurobehavioral effect on Swiss Webster mouse assessed as tail-flick latency time at 10 mg/kg, ip (reference value: 0.84 +/- 3.58 %) by mouse tetrad assay; type: functional
[14] = tested on: Mus musculus; experiment: Neurobehavioral effect on Swiss Webster mouse assessed as decrease in rectal temperature at 20 mg/kg, ip (reference value: 0.58 +/- 0.26 degC) by mouse tetrad assay; type: functional
[15] = tested on: Mus musculus; experiment: Neurobehavioral effect on Swiss Webster mouse assessed as decrease in rectal temperature at 5 mg/kg, ip (reference value: 0.58 +/- 0.26 degC) by mouse tetrad assay; type: functional
[16] = tested on: Mus musculus; experiment: Neurobehavioral effect on Swiss Webster mouse assessed as hot plate latency time at 20 mg/kg, ip (reference value: 8.32 +/- 2.20 %) by mouse tetrad assay; type: functional
[17] = tested on: Mus musculus; experiment: Neurobehavioral effect on Swiss Webster mouse assessed as catalepsy latency time at 10 mg/kg, ip (reference value: 2.1 +/- 0.60 secs) by mouse tetrad assay; type: functional
[18] = tested on: Mus musculus; experiment: Neurobehavioral effect on Swiss Webster mouse assessed as decrease in rectal temperature at 40 mg/kg, ip (reference value: 0.58 +/- 0.26 degC) by mouse tetrad assay; type: functional
[19] = tested on: Mus musculus; experiment: Neurobehavioral effect on Swiss Webster mouse assessed as tail-flick latency time at 40 mg/kg, ip (reference value: 0.84 +/- 3.58 %) by mouse tetrad assay; type: functional
[20] = tested on: Mus musculus; experiment: Neurobehavioral effect on Swiss Webster mouse assessed as locomotor activity measured as total number of interruptions at 40 mg/kg, ip monitored for 30 mins (reference value: 2091 +/- 209.3) by mouse tetrad assay; type: functional
[21] = tested on: Mus musculus; experiment: Neurobehavioral effect on Swiss Webster mouse assessed as catalepsy latency time at 40 mg/kg, ip (reference value: 2.1 +/- 0.60 secs) by mouse tetrad assay; type: functional
[22] = tested on: Mus musculus; experiment: Neurobehavioral effect on Swiss Webster mouse assessed as hot plate latency time at 40 mg/kg, ip (reference value: 8.32 +/- 2.20 %) by mouse tetrad assay; type: functional

Cannabinoid receptor 1, sequence (P21554 whole entry): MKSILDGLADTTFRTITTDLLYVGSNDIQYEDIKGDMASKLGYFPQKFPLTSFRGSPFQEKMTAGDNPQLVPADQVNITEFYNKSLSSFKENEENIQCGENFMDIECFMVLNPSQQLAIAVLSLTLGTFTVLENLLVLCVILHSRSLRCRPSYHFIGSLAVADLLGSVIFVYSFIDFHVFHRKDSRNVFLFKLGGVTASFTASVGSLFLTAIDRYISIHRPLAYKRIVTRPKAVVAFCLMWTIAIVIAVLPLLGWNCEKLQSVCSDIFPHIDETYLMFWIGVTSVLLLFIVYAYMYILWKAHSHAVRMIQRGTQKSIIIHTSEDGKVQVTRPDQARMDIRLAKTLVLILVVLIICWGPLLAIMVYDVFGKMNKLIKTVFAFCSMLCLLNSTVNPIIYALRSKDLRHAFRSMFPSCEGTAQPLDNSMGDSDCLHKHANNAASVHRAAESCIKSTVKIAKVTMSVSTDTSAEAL
Cannabinoid receptor 2, sequence (P34972 whole entry): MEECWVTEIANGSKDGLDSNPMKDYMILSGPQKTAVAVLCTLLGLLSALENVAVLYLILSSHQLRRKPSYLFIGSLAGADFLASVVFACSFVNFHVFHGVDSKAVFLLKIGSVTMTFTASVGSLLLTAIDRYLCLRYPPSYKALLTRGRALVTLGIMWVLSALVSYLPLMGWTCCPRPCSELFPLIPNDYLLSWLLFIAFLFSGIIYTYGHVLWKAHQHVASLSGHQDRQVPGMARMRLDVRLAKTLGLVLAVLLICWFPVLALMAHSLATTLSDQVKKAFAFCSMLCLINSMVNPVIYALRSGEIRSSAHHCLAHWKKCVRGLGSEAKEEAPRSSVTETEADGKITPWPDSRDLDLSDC

Row | SMILES | Time [1] | Activity [2] | MPE [3] | Time [4] | Activity [5] | Ki [6] | Activity [7] | MPE [8] | MPE [9] | T [10] | Ki [11] | MPE [12] | MPE [13] | T [14] | T [15] | MPE [16] | Time [17] | T [18] | MPE [19] | Activity [20] | further results
1 | CCCCCc1cc(O)c2c(c1)OC(C)(C)[C@@H]1CC=C(C)[C@H](O)[C@@H]21 | 51.1 s | 318.1 | 90.16% | 22 s | 301.9 | 30 nM | 288.3 | 37.4% | 21.04% | 3.21 °C | 31 nM | 56.33% | 31.46% | 5.38 °C | 2.46 °C | 47.63% | 23.9 s |  |  |  | 
2 | CCCCCc1cc2c(c(O)c1C(=O)O)[C@@H]1C=C(COC(C)=O)CC[C@H]1C(C)(C)O2 |  |  |  |  |  | 912 nM |  |  |  |  | 47 nM |  |  |  |  |  |  |  |  |  | 
3 | CCCCCc1cc(O)c2c(c1)OC(C)(C)[C@@H]1C[C@@H](O)C(C)=C[C@@H]21 | 1.43 s |  | 1.62% |  | 1148 | 88 nM | 1617 |  |  | 0.49 °C | 65 nM | 11.83% | 0.13% | 0.5 °C |  | 2.04% | 1.143 s | 0.91 °C | 12.69% | 777.4 | Time [21]: 11.43 s; MPE [22]: 11.79%
4 | CCCCCc1cc(O)c2c(c1)OC(C)(C)[C@@H]1CC[C@](C)(O)[C@@H](O)[C@@H]21 | 2.25 s |  | 2.98% |  | 1892 | 2140 nM |  |  |  |  | 5670 nM |  |  | 0.45 °C |  | 2.4% |  |  |  |  | 
5 | CCCCCc1cc(O)c2c(c1)OC(C)(C)[C@@H]1C[C@H](O)C(C)=C[C@@H]21 | 1.5 s |  | 5.01% |  | 908.9 | 3220 nM |  |  |  |  | 1910 nM |  |  | 0.58 °C |  | 4.95% |  |  |  |  | 
6 | CCCCCc1cc(O)c2c(c1)OC(C)(C)[C@@H]1CC[C@@]3(C)O[C@H]3[C@@H]21 | 27.5 s | 213.4 | 50.37% | 23.8 s | 380.3 | 335 nM | 291.2 | 16.25% | 36.98% | 3.11 °C | 224 nM | 35.89% | 82.71% | 4.58 °C | 3.75 °C | 49.39% | 8.8 s |  |  |  | 
7 | CCCCCc1cc(O)c2c(c1)OC(C)(C)[C@@H]1CC=C(C)[C@@H](O)[C@@H]21 |  |  |  |  |  | 3270 nM | 3045 |  |  | 0.47 °C | 830 nM | 6.819% | 2.2% |  |  |  | 1.4 s | 5.32 °C | 69.95% | 2537 | Time [21]: 13.7 s; MPE [22]: 55.65%
8 | CCCCCc1cc(O)c2c(c1)OC(C)(C)[C@@H]1CC=C(C)C[C@@H]21 [DELTA-8-TETRAHYDROCANNABINOL] | 5.3 s | 1480 | 5.97% | 1.6 s | 377.4 |  |  | 8.01% | 12.82% |  |  |  |  | 1.96 °C | 0.12 °C | 16.98% |  |  |  |  | 
9 | C=C1CC[C@@H]2[C@H](c3c(O)cc(CCCCC)cc3OC2(C)C)[C@H]1O |  |  |  |  |  | 129 nM |  |  |  |  | 117 nM |  |  |  |  |  |  |  |  |  | 
10 | CCCCCc1cc(O)c2c(c1)OC(C)(C)[C@@H]1CCC(C)=C[C@@H]21 [DRONABINOL] | 47.9 s |  | 42.21% |  | 276.2 |  | 190.9 |  |  | 2.05 °C |  | 29.04% | 6.52% | 4.25 °C |  | 46.85% | 14.4 s | 4.8 °C | 51.96% | 194 | Time [21]: 37.7 s; MPE [22]: 38.18%
